Literature values as cited in US20090131498A1, “Enantioselective Synthesis of Merrilactone and Its Analogs” (priority 2005, published 2009).

Tested on: neurite growth
Conditions: described by Fukuyama et al. (ref. 3)

In the case of `C[C@@]12COC(=O)[C@]1(C)C1O[C@]3(C)[C@@H](O)C[C@]24OC(=O)C[C@]143` (stereo partly shown) [merrilactone A, Merrilactone A], the “activity in a neurite growth assay” value is listed as “promising activity”.
